Source: US20250179057A1, “MEK IMMUNE ONCOLOGY INHIBITORS AND THERAPEUTIC USES THEREOF” (Immuneering Corporation, priority 2022, published 2025)
Several values for one entry are separate records, joined by “and”; a condition that tells them apart may be missing. Identical values can stand only once.

System: phospho-ERK in A549 (KRAS G12S) cells
Assay: Cell-based pERK (pERK:tERK) in A549 cells
Design: A549-pERK 10 uM, 2 h: unit not given here
Conditions: 2 h; for A549-pERK (10 nM, 2 h): phospho- to total protein ratio normalized to DMSO control (Table 9); for A549-pERK 10 uM, 2 h: phospho- to total protein ratio normalized to DMSO control
Description: Media components, reagents and buffers for Western Blot: All cell culture media components were obtained from ThermoFisher Scientific. […] Laemmli sample loading 4× buffer (ThermoFisher Scientific, Cat No. NP0007). MOPS/SDS electrophoresis running buffer (GenScript, Cat No. M00138).
Subculture conditions: Adherent cells were grown to approximately 90% confluency, culture medium was aspirated and the cell layer was rinsed with PBS. […] Eight mL media was added, cells were spun down at 1000×g for 5 minutes. Cell pellet was re-suspended in 10 mL media and an appropriate volume was inoculated into a new culture flask.
Compound (drug) treatment: Cells were plated in a 6-well plate at a density of 250,000-300,000 cells/well in 3 mL media and incubated 37° C. in a humidified, 5% CO2 incubator. […] These solutions were added to the cells (3 uL/well), mixed by swirling the plate, and incubated at 37° C. in a humidified, 5% CO2 incubator for 2 hours.
Cell lysis and protein estimation: Cells were washed with PBS, and scraped in 50 μL of lysis buffer containing protease and phosphatase inhibitors. Cell lysates were stored at −20° C. Cell lysates were thawed and spun at 12,000 rpm for one minute, 3 ul of the supernatant was added to 500 μL of Coomassie blue reagent following by 500 μL of water. […] Protein standards were used (0-20 mg/mL) to calculate protein concentrations of test samples.
All samples were heated at 95° C. for 5 minutes, cooled to room temperature and spun down. […] After the run, gel was removed and protein transfer was done using iBlot for 7 minutes, as per manufacturer's recommendations. After the transfer, nitrocellulose membrane was incubated on a shaker in 5 mL of blocking buffer at room temperature for 1 hr. The blot was then incubated overnight on a shaker in 5 ml of blocking buffer containing 0.2% Tween-20 and primary antibody, at room temperature. Anti-phospho-STAT3 antibody was used at a dilution of 1:500, the other 3 primary antibodies were used at a dilution of 1:1000.
Next day, the blot was washed 3 times for 10 min each with 10 mL of TBST followed by incubation on a shaker in 5 ml of blocking buffer containing 0.2% Tween-20 and 0.5 ul of the IRDye labeled secondary antibodies, diluted 1:10000, at room temperature for 1 hr. The blot was then washed 3 times for 10 min each with 10 mL of TBST and dried between sheets of paper towels. Imaging was done using LICOR's Odyssey imaging system, quantitation was done using their software, Image Studio version 3.1.
Materials and Methods: A549 or A375 cells were seeded in 6-well plates at an appropriate seeding density on day 0. On day 2 or 3, after checking the health and confluency of cells, the media was aspirated and replaced with 1 mL media containing a predetermined concentration of compound and incubated for 2 hours. After 2 hours, the media was aspirated, and the cells washed 2 times with cold PBS. Cells were lysed on ice, with 50 uL 1×CST lysis buffer +1 mM PMSF for 5 minutes. After 5 minutes, cells were removed using a scraper and transferred to cold 1.5 mL tubes, and centrifuged for 10 min, 4° C., 14,000×g. Supernatant was gently removed and snap frozen in liquid nitrogen. Protein concentration of the lysate was determined using Bradford Reagent (analyzed using SpectraMax M2E) and diluted to 1 mg/mL or pERK or 1.5 mg/mL for pMEK analysis. […] All dilutions were in Milk-free antibody diluent.
They were grown in T75 flasks in DMEM containing 10% FBS and Pen-Strep. at 37° C. in a humidified, 5% CO2 incubator. The adherent cells were grown to about 90% confluency, culture medium was aspirated, and the cell layer was rinsed with PBS. […] Eight mL media was added, cells were spun down at 1000 g for 5 minutes. Cell pellet was re-suspended in 10 mL media and an appropriate volume was inoculated into a new culture flask. Cells were plated in a 6-well plate at a density of 250,000-300,000 cells/well in 3 mL media and incubated 37° C. in a humidified, 5% CO2 incubator.

| Compound | A549-pERK (10 nM, 2 h) | A549-pERK 10 uM, 2 h |
| --- | --- | --- |
| CNS(=O)(=O)Nc1cccc(Cc2c(CN3CCN(Cc4ccccc4)CC3)c3ccc(OC(=O)N(C)C)cc3oc2=O)c1F [Compound 16] | 91.6 | – |
| CNS(=O)(=O)Nc1cccc(Cc2c(CNCCN(C)C)c3ccc(OC(=O)N(C)C)cc3oc2=O)c1F [Compound 58] | 98.7 and 108 | – |
| CNS(=O)(=O)Nc1cccc(Cc2c(CN3CC(C(N)=O)C3)c3ccc(OC(=O)N(C)C)cc3oc2=O)c1F [Compound 173] | 97.7 | – |
| CNS(=O)(=O)Nc1cccc(Cc2c(CNCCC(F)(F)F)c3ccc(OC(=O)N(C)C)cc3oc2=O)c1F [Compound 66] | 104 | – |
| CNS(=O)(=O)Nc1cccc(Cc2c(CNCc3ccco3)c3ccc(OC(=O)N(C)C)cc3oc2=O)c1F [Compound 56] | 92.9 | – |
| CN(C)C(=O)Oc1ccc2c(CN3CCC3)c(Cc3ccnc(NS(=O)(=O)C4CC4)c3F)c(=O)oc2c1 [Compound 155] | 84.9 | – |
| CNS(=O)(=O)Nc1cccc(Cc2c(CN3CCN(C(C)C)CC3)c3ccc(OC(=O)N(C)C)cc3oc2=O)c1F [Compound 62] | 73 | – |
| CNS(=O)(=O)Nc1cccc(Cc2c(CNCC(=O)N(C)C)c3ccc(OC(=O)N(C)C)cc3oc2=O)c1F [Compound 57] | 106 and 119 | 7.33 |
| CNS(=O)(=O)Nc1cccc(Cc2c(CNCc3ccncc3)c3ccc(OC(=O)N(C)C)cc3oc2=O)c1F [Compound 29] | 96 | – |
| CNS(=O)(=O)Nc1cccc(Cc2c(CNC(=O)C(C)C)c3ccc(OC(=O)N(C)C)cc3oc2=O)c1F [Compound 208] | 105 | 23.64 |
| CNS(=O)(=O)Nc1cccc(Cc2c(CN3CC4CC3CN4)c3ccc(OC(=O)N(C)C)cc3oc2=O)c1F (stereo not drawn) [Compound 138] | 96.9 | – |
| CNS(=O)(=O)Nc1cccc(Cc2c(CN(C)c3ccccc3Cl)c3ccc(OC(=O)N(C)C)cc3oc2=O)c1F [Compound 99] | 98.9 | – |
| CNS(=O)(=O)Nc1cccc(Cc2c(CN3CC4(COC4)C3)c3ccc(OC(=O)N(C)C)cc3oc2=O)c1F [Compound 152] | 70.5 | – |
| CNS(=O)(=O)Nc1cccc(Cc2c(CN3CC(N)C3)c3ccc(OC(=O)N(C)C)cc3oc2=O)c1F [Compound 165] | 104 | – |
| CCN(CC)C(=O)Oc1ccc2c(CN(C)C)c(Cc3cccc(NS(=O)(=O)NC)c3F)c(=O)oc2c1 [Compound 126] | 91.4 | – |
| CNS(=O)(=O)Nc1cccc(Cc2c(CC(=O)Nc3ccn[nH]3)c3ccc(OC(=O)N(C)C)cc3oc2=O)c1F [Compound 202] | 119 | – |
| CNS(=O)(=O)Nc1cccc(Cc2c(CNc3cn[nH]c3)c3ccc(OC(=O)N(C)C)cc3oc2=O)c1F [Compound 92] | 93.8 | – |
| CNS(=O)(=O)Nc1cccc(Cc2c(CC(=O)N3CC(OC)C3)c3ccc(OC(=O)N(C)C)cc3oc2=O)c1F [Compound 216] | 89.5 | 4.51 |
| CNS(=O)(=O)Nc1cccc(Cc2c(CNc3ccc(OC)nc3)c3ccc(OC(=O)N(C)C)cc3oc2=O)c1F [Compound 193] | 90.7 | – |
| CNS(=O)(=O)Nc1cccc(Cc2c(CNC(=O)C(C)(C)O)c3ccc(OC(=O)N(C)C)cc3oc2=O)c1F [Compound 212] | 100 | 13.03 |
| CCN1CCN(Cc2c(Cc3cccc(NS(=O)(=O)NC)c3F)c(=O)oc3cc(OC(=O)N(C)C)ccc23)CC1=O [Compound 69] | 101 | – |
| CNS(=O)(=O)Nc1cccc(Cc2c(CN3CC(C)(C)C3)c3ccc(OC(=O)N(C)C)cc3oc2=O)c1F [Compound 143] | 104 | – |

| Compound | A549-pERK (10 nM, 2 h) | A549-pERK 10 uM, 2 h |
| --- | --- | --- |
| CNS(=O)(=O)Nc1cccc(Cc2c(CN3CCN(S(C)(=O)=O)CC3)c3ccc(OC(=O)N(C)C)cc3oc2=O)c1F [Compound 68] | 68.9 | – |
| CNS(=O)(=O)Nc1cccc(Cc2c(CNC(=O)OCCO)c3ccc(OC(=O)N(C)C)cc3oc2=O)c1F [Compound 106] | – | 27.88 |
| CNS(=O)(=O)Nc1cccc(Cc2c(CNC(C)c3ccccc3)c3ccc(OC(=O)N(C)C)cc3oc2=O)c1F (stereo not drawn) [Compound 63] | 88 | – |
| CNS(=O)(=O)Nc1cccc(Cc2c(CN(C)c3cccc(Cl)c3)c3ccc(OC(=O)N(C)C)cc3oc2=O)c1F [Compound 95] | 80.2 | – |
| CNS(=O)(=O)Nc1cccc(Cc2c(CN3CCC4(CN(C)C4)C3)c3ccc(OC(=O)N(C)C)cc3oc2=O)c1F [Compound 159] | 82.7 | – |
| CNS(=O)(=O)Nc1cccc(Cc2c(CN3CCN(C)CC3)c3ccc(OC(=O)N(C)C)cc3oc2=O)c1F [Compound 15] | 73.8 | – |
| CNS(=O)(=O)Nc1cccc(Cc2c(CNC(=O)c3nn[nH]n3)c3ccc(OC(=O)N(C)C)cc3oc2=O)c1F [Compound 213] | 100 | 70.14 |
| CNS(=O)(=O)Nc1cccc(Cc2c(CNc3ccn[nH]3)c3ccc(OC(=O)N(C)C)cc3oc2=O)c1F [Compound 31] | 66.7 | – |
| CNS(=O)(=O)Nc1cccc(Cc2c(CNCC(=O)N(C)c3ccccc3)c3ccc(OC(=O)N(C)C)cc3oc2=O)c1F [Compound 220] | 109 | 4.28 |
| CNS(=O)(=O)Nc1cccc(Cc2c(CC(=O)N3CCN(C)CC3)c3ccc(OC(=O)N(C)C)cc3oc2=O)c1F [Compound 195] | 113 | – |
| CNS(=O)(=O)Nc1cccc(Cc2c(CN3CCN(C(=O)c4ccccc4)CC3)c3ccc(OC(=O)N(C)C)cc3oc2=O)c1F [Compound 65] | 100 | – |
| CNS(=O)(=O)Nc1cccc(Cc2c(CNc3ccnn3C)c3ccc(OC(=O)N(C)C)cc3oc2=O)c1F [Compound 96] | 102 | – |
| CNS(=O)(=O)Nc1cccc(Cc2c(CC(=O)N(C)CC#N)c3ccc(OC(=O)N(C)C)cc3oc2=O)c1F [Compound 198] | 109 | – |
| CNS(=O)(=O)Nc1cccc(Cc2c(CN3CCOCC3=O)c3ccc(OC(=O)N(C)C)cc3oc2=O)c1F [Compound 181] | 100 | 22.23 |
| CNS(=O)(=O)Nc1cccc(Cc2c(CNCC(=O)N3CCNCC3)c3ccc(OC(=O)N(C)C)cc3oc2=O)c1F [Compound 191] | 131 | 8.6 |
| CCC(=O)NCc1c(Cc2cccc(NS(=O)(=O)NC)c2F)c(=O)oc2cc(OC(=O)N(C)C)ccc12 [Compound 207] | 97.4 | 11.35 |
| CNS(=O)(=O)Nc1cccc(Cc2c(CN3CCN(C4CC4)CC3)c3ccc(OC(=O)N(C)C)cc3oc2=O)c1F [Compound 64] | 73 | – |
| CNS(=O)(=O)Nc1cccc(Cc2c(CNCC(=O)O)c3cc(Cl)c(OC(=O)N(C)C)cc3oc2=O)c1F [Compound 133] | 88.1 | 23.41 |
| CNS(=O)(=O)Nc1cccc(Cc2c(CNCC(=O)N(C)CC#N)c3ccc(OC(=O)N(C)C)cc3oc2=O)c1F [Compound 217] | 96.7 | 11.2 |
| CNS(=O)(=O)Nc1cccc(Cc2c(CN3CC(N(C)C)C3)c3ccc(OC(=O)N(C)C)cc3oc2=O)c1F [Compound 154] | 64 | – |
| CNS(=O)(=O)Nc1cccc(Cc2c(CNCCCCO)c3ccc(OC(=O)N(C)C)cc3oc2=O)c1F [Compound 71] | 99.4 | – |
